Reference: patent US8669250B2, “Derivatives of aryl-{4-halogeno-4-[aminomethyl]-piperidin-1-yl}-methanone, their method of preparation and their use as medicinal products” (Pierre Fabre Medicament, priority 2009, dated 2014)
“Also recorded” adds a separate entry of the source.

Assays:
5-HT1A receptor = molecular target: T1, 5-HT1A receptor (Rattus norvegicus, UniProt P19327); experiment: Affinity for 5-HT1A receptors, shift of (3H)8-OH-DPAT in rat cerebral cortex; assay type: binding; settings: mean of at least 3 experiments, read-out: 5-HT1A affinity (pKi) (converted)
T1 construct: the cerebral cortex is sampled and homogenized in 20 volumes of buffer; from tissue; host or cells: rat cerebral cortex homogenate (membranes)
T1 sequence (P19327 1-422): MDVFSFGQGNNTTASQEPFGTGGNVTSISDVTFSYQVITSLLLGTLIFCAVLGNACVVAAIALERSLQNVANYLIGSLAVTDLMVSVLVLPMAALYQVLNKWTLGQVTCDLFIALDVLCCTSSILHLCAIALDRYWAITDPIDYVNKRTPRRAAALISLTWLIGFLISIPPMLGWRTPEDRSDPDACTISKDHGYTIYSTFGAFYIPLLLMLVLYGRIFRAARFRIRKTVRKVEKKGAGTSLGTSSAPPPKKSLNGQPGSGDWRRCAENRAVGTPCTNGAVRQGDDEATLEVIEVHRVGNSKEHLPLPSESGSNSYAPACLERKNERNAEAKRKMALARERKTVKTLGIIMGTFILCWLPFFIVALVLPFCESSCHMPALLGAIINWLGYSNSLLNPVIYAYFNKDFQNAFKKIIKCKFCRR
Protocol: (§1) The affinity of the compounds of the invention for the rat 5-HT1A receptor was measured conventionally from competitive experiments with a radiolabelled 5-HT1A agonist. […] This test is widely used since it is predictive of antidepressant action in man. Analgesic activity was determined after intra-peritoneal administration to rats, both with a physiological pain model and a pathological pain model. By physiological pain, the inventors designate pain whose origin is a lesion and/or organic ill-function such as pain caused by excessive nociceptive stimuli.
The in vitro affinity of the compounds of the invention for the 5-HT1A receptors was determined by measuring the shift of (^3H)8-OH-DPAT (agonist of 5HT1A receptors labelled with tritium, TRK 850; 160-240 Ci/mmole).
The study on binding with the 5-HT1A receptor was conducted as described in Naunyn-Schmiedeberg's Arch. Pharmaco. 1991, 343, 106. For these experiments, rat cerebral cortices were used. After unfreezing the brain in Tris-HCl buffer 50 mmol, pH=7.40 at 25° C., the cerebral cortex is sampled and homogenized in 20 volumes of buffer held at 4° C. The homogenate is centrifuged at 39000 g for 10 min, the centrifuge residue is suspended in the same volume of buffer and again centrifuged. After further suspension under the same conditions, the homogenate is incubated for 10 min at 37° C. then again centrifuged. The final residue is suspended in cold reaction buffer Tris-HCl 50 mmol, pH=7.40 at 25° C. containing […] of pargyline, 4 mmol of CaCl2 and 0.10% ascorbic acid. The final concentration of the tissue in the incubation medium is 10 mg/tube.
The reaction tubes contain 0.10 mL of (^3H)8-OH-DPAT (final […]), 0.10 mL of product to be tested 6-7 concentrations and 0.80 mL of tissue. Non-specific binding is defined using […] of 5-HT. The reaction tubes are incubated at 23° C. for 30 min then their content is rapidly vacuum filtered through Whatman GF/B filters, the tubes are rinsed with 2×5 mL of Tris-HCl buffer 50 mmol, pH=7.4 at 25° C. Radioactivity is collected on the filter and analyzed by liquid scintillation by adding 4 mL of scintillating liquid (Emulsifier Safe, Packard). All experiments were performed in triplicate.
The inhibition constants (Ki) of the products of the invention are estimated from shift experiments using the non-linear regression programme RADLIG version 4 by EBDA (Equilibrium Binding Data Analysis Biosoft, Cambridge, UK, Mc Pherson, 1985). The dissociation constant of the radioactive ligand used for calculations is […] for (^3H)8-OH-DPAT. The values of pKi (−log Ki) are given in the form mean±SEM of at least 3 experiments.

[1] = test system: rats, oxaliplatine-induced allodynia; experiment: Oxaliplatine test, von Frey (analgesic activity, pathological pain); assay type: in vivo; settings: rat, i.p.
Source text: (§2) The physiological pain model chosen by the inventors to determine the analgesic activity of the compounds of the invention uses excess nociceptive stimuli (injection of formol) to cause a painful sensation in animal (Eur. J. Pharmacol. 2001, 421, 109). For the so-called pathological pain model in animal, the inventors chose to use pain induced by the injection of a cytotoxic agent such as oxaliplatine (Eur. J. Cancer 2007, 2658).
The rats (Male Sprague Dawley rats (ICO: OFA SD [IOPS], Iffa Credo, France) are tested a first time on the Friday to determine their mechanical sensitivity threshold (von Frey test). They are then given an intra-peritoneal injection (i.p.) of oxaliplatine (anticancer treatment causing neuropathic pain in patients) at a dose of 8 mg/kg. This dose in rat induces neuropathy which translates as mechanical hypersensitivity (allodynia) which develops 3 days after the injection with a peak on day five. For the study of the compounds of the invention, the animals are re-tested on day five, 15 min after administration of the compound via intra-peritoneal route.
The pressure force is then measured (in g) at which withdrawal of the paw of the animals is observed.

[2] = test system: rats, forced swimming immobility; experiment: Forced swimming test (antidepressant activity); assay type: in vivo; settings: rat, oral
Protocol: as §1
The rats (Male Sprague Dawley rats (ICO: OFA SD [IOPS], Iffa Credo, France), are placed in a cylinder (45 cm high and 20 cm in diameter) filled with water at 25° C.±0.5 up to a height of 17 cm. This depth allows rats to swim or float without their tail touching the bottom of the cylinder.
24 h before the test day, the rats are placed in the cylinder for 15 min, a lapse of time after which they no longer attempt to escape and remain immobile. On the test day the animals are replaced in the cylinder and the duration of animal immobility is measured by direct observation followed by verification of an audiovisual recording for 5 min. The products of the invention are administered by oral route 60 min before the test. A rat is considered to be immobile if it allows itself to float and only makes small movements to remain on the surface. Two rats are observed at the same time.
(§3) Quantification of the effect of the compounds of the invention on the forced swimming tests and on the formol test is conducted by one-factor variance analysis between groups (ANOVA analysis) followed by a multiple comparison test (Dunnett's test) versus control animals. The ED50 value is calculated using Litchfield and Wilcoxon analysis from the percentage of responding animals.

[3] = test system: rats, formol-induced pain; experiment: Formol test (analgesic activity, physiological pain); assay type: in vivo; settings: rat, i.p.
Source text: as §2
The rats (Male Sprague Dawley rats (ICO: OFA SD [IOPS], Iffa Credo, France) are placed in plexiglass observation boxes above an angled mirror so as to facilitate observation of the hind paws. After thirty minutes of habituation, the animals are given an injection of formol diluted to 2.5% on the plantar surface of the right hind paw. The injection of formol produces behavioural responses which occur in two phases:
an acute phase, from 0 to 5 min after injection of the formol, corresponding to stimulation of receptors specialized in the transmission of pain messages to the spinal cord.
a late phase which occurs 20 to 30 min after the injection. This phase corresponds to stimulation of receptors by inflammatory mediators and/or to hyper-excitability of the dorsal horn induced during the first phase. This late phase therefore involves central sensitization.
For the study of the compounds of the invention we selected two expressions of painful behaviour and chose two periods of observation which correspond to the two pain phases (i.e. 0-5 min and 22.5-27.5 min). During these two 5-min periods the animals are observed every 30 seconds and are given scores for the following behaviours: paw licking or not of the injected paw, and lifting or non-lifting of the injected paw. Ten observations give a maximum score of 10 for each parameter for each of the 2 phases. The products of the invention are administered via intraperitoneal route 15 min before the injection of formol.
as §3
For this test, the animals are observed every 30 seconds during two periods of 5 min. The following behaviours are noted: paw licking or not of the injected paw, and paw lifting or not of the injected paw. Ten observations give a maximum score of 10 for each parameter for each of the 2 phases, measuring either paw lifting or paw licking. This test was also performed by comparison with administration of the vehicle (veh) alone.

With `O=C(c1ccc(F)c(Cl)c1)N1CCC(F)(CNCC2CNc3ccccc3O2)CC1` (single isomer, unassigned; (-)) [Compound 1a1, (−)-(3-Chloro-4-fluoro-phenyl)-{4-fluoro-4-[(3,4-dihydro-2H-1,4-benzoxazine-2-methanamino)-methyl]-pipéridin-1-yl}-methanone] the Ki (5-HT1A receptor) was 1.02 nM, the “dose on and after which full analgesia is obtained” value ([1]; day five after oxaliplatine, von Frey) was at least 0.04 mg/kg and the “effect on allodynia, in words” value ([1]; dose range) was “dose-dependent inhibition of allodynia”. For the same compound, the “dose on and after which none of the animals remains immobile” value [2] was at least 10 mg/kg, the ED50 ([2]; 60 min before test, read-out: ED50, reduction of immobility time) was 0.08 mg/kg and the “effect on animal immobility time” value ([2]; dose range) was “reducing the animal's immobility time in dose-dependent fashion”. The ED50 ([3]; ip, 15 min before formol, read-out: ED50, inhibition of paw lifting) was 0.05 mg/kg and the “effect on paw lifting and paw licking, in words” value ([3]; acute and late phases) was “dose-dependent inhibition of the 2 measured parameters; also recorded: Full analgesia is obtained irrespective of the pain phase”.
